Tests used:
[1] = Kinetic dissolution test; type: physicochemical; conditions: 200 mg tablet, 100 mL saline solution, paddle 100 rpm, 37 °C
Method: The tests were performed in duplicate on 13 mm tablets containing 200 mg agomelatine (form I) or agomelatine pyruvic acid cocrystal, which were prepared on a Digital Hydraulic Press at a force of about 8 metric tons. The tablets were placed in 100 mL of saline solution in a paddle apparatus at 100 rpm and 37 °C ± 0.5 °C. A 3 mL sample was withdrawn from each vessel at fixed time points, filtered through a 0.45 µm filter (discarding the first 1 mL), analyzed by HPLC, and compared to a previously prepared reference standard calibration curve. Immediately after each sampling, the solutions in the vessels were replenished with 3 mL of saline.

[2] = Stability tests (chemical stability by HPLC); type: physicochemical
Method: Agomelatine pyruvic acid cocrystal according to Example 1 was subjected to stability tests for seven days at 25 °C, 60 % RH and 40 °C, 75 % RH, respectively.

[3] = cited from earlier work
[4] = 5 min, Ø (average of #1 and #2)
[5] = 15 min, Ø (average of #1 and #2)
[6] = 30 min, Ø (average of #1 and #2)
[7] = 45 min, Ø (average of #1 and #2)
[8] = 60 min, Ø (average of #1 and #2)
[9] = 90 min, Ø (average of #1 and #2)
[10] = 120 min, Ø (average of #1 and #2)
[11] = 180 min, Ø (average of #1 and #2)
[12] = 240 min, Ø (average of #1 and #2)
[13] = 300 min, Ø (average of #1 and #2)
[14] = 360 min, Ø (average of #1 and #2)
[15] = 420 min, Ø (average of #1 and #2)

kinetic dissolution in aqueous medium ([1]; 5 min, #1) | kinetic dissolution in aqueous medium ([1]; 5 min, #2) | kinetic dissolution in aqueous medium [1, 4] | kinetic dissolution in aqueous medium ([1]; 15 min, #1) | kinetic dissolution in aqueous medium ([1]; 15 min, #2) | kinetic dissolution in aqueous medium [1, 5] | kinetic dissolution in aqueous medium ([1]; 30 min, #1) | kinetic dissolution in aqueous medium ([1]; 30 min, #2) | kinetic dissolution in aqueous medium [1, 6] | kinetic dissolution in aqueous medium ([1]; 45 min, #1) | kinetic dissolution in aqueous medium ([1]; 45 min, #2) | kinetic dissolution in aqueous medium [1, 7] | kinetic dissolution in aqueous medium ([1]; 60 min, #1) | kinetic dissolution in aqueous medium ([1]; 60 min, #2) | kinetic dissolution in aqueous medium [1, 8] | kinetic dissolution in aqueous medium ([1]; 90 min, #1) | kinetic dissolution in aqueous medium ([1]; 90 min, #2) | kinetic dissolution in aqueous medium [1, 9] | kinetic dissolution in aqueous medium ([1]; 120 min, #1) | kinetic dissolution in aqueous medium ([1]; 120 min, #2) | SMILES | also measured
3.39 µg/mL | 4.38 µg/mL | 3.89 µg/mL | 8.20 µg/mL | 9.32 µg/mL | 8.76 µg/mL | 14.80 µg/mL | 15.58 µg/mL | 15.19 µg/mL | 22.55 µg/mL | 23.81 µg/mL | 23.18 µg/mL | 30.05 µg/mL | 31.53 µg/mL | 30.79 µg/mL | 47.49 µg/mL | 50.84 µg/mL | 49.17 µg/mL | 55.73 µg/mL | 58.72 µg/mL | COc1ccc2cccc(CCNC(C)=O)c2c1 [Form I, N-[2-(7-methoxynaphthalen-1-yl)ethyl]acetamide] | kinetic dissolution in aqueous medium [1, 10]: 57.23 µg/mL; kinetic dissolution in aqueous medium ([1]; 180 min, #1): 75.07 µg/mL; kinetic dissolution in aqueous medium ([1]; 180 min, #2): 74.85 µg/mL; kinetic dissolution in aqueous medium [1, 11]: 74.96 µg/mL; kinetic dissolution in aqueous medium ([1]; 240 min, #1): 91.32 µg/mL; kinetic dissolution in aqueous medium ([1]; 240 min, #2): 86.85 µg/mL; kinetic dissolution in aqueous medium [1, 12]: 89.09 µg/mL; kinetic dissolution in aqueous medium ([1]; 300 min, #1): 102.54 µg/mL; kinetic dissolution in aqueous medium ([1]; 300 min, #2): 96.76 µg/mL; kinetic dissolution in aqueous medium [1, 13]: 99.65 µg/mL; kinetic dissolution in aqueous medium ([1]; 360 min, #1): 112.42 µg/mL; kinetic dissolution in aqueous medium ([1]; 360 min, #2): 106.36 µg/mL; kinetic dissolution in aqueous medium [1, 14]: 109.39 µg/mL; kinetic dissolution in aqueous medium ([1]; 420 min, #1): 121.98 µg/mL; kinetic dissolution in aqueous medium ([1]; 420 min, #2): 114.14 µg/mL; kinetic dissolution in aqueous medium [1, 15]: 118.06 µg/mL
5.21 µg/mL | 5.45 µg/mL | 5.33 µg/mL | 12.55 µg/mL | 13.42 µg/mL | 12.99 µg/mL | 22.75 µg/mL | 24.10 µg/mL | 23.43 µg/mL | 33.41 µg/mL | 37.03 µg/mL | 35.22 µg/mL | 42.71 µg/mL | 50.65 µg/mL | 46.68 µg/mL | 70.03 µg/mL | 77.31 µg/mL | 73.67 µg/mL | 84.65 µg/mL | 90.24 µg/mL | COc1ccc2cccc(CCNC(C)=O)c2c1 [Pyruvic Acid Cocrystal] | chemical stability as determined by HPLC ([2]; seven days at 25 °C, 60 % RH): excellent chemical stability; chemical stability as determined by HPLC ([2]; seven days at 40 °C, 75 % RH): excellent chemical stability; kinetic dissolution in aqueous medium [1, 10]: 87.45 µg/mL; kinetic dissolution in aqueous medium ([1]; 180 min, #1): 114.37 µg/mL; kinetic dissolution in aqueous medium ([1]; 180 min, #2): 114.58 µg/mL; kinetic dissolution in aqueous medium [1, 11]: 114.48 µg/mL; kinetic dissolution in aqueous medium ([1]; 240 min, #1): 131.99 µg/mL; kinetic dissolution in aqueous medium ([1]; 240 min, #2): 131.80 µg/mL; kinetic dissolution in aqueous medium [1, 12]: 131.9 µg/mL; kinetic dissolution in aqueous medium ([1]; 300 min, #1): 144.64 µg/mL; kinetic dissolution in aqueous medium ([1]; 300 min, #2): 144.74 µg/mL; kinetic dissolution in aqueous medium [1, 13]: 144.69 µg/mL; kinetic dissolution in aqueous medium ([1]; 360 min, #1): 155.52 µg/mL; kinetic dissolution in aqueous medium ([1]; 360 min, #2): 156.49 µg/mL; kinetic dissolution in aqueous medium [1, 14]: 156.01 µg/mL; kinetic dissolution in aqueous medium ([1]; 420 min, #1): 165.30 µg/mL; kinetic dissolution in aqueous medium ([1]; 420 min, #2): 163.14 µg/mL; kinetic dissolution in aqueous medium [1, 15]: 164.22 µg/mL
– | – | – | – | – | – | – | – | – | – | – | – | – | – | – | – | – | – | – | – | COc1ccc2cccc(CCNC(C)=O)c2c1 [agomelatine, N-[2-(7-methoxynaphthalen-1-yl)ethyl]acetamide] | solubility in various organic solvents ([3]; e.g. ethanol, methanol, methylene chloride, freely soluble): > 100 mg/mL; solubility in purified water ([3]; purified water, practically insoluble): < 0.1 mg/mL
